Values of other authors, collected in patent publication US20080279948A1, “Treatment of Asthma and Copd Using Triple-Combination Therapy” (NXP B.V., priority 2005, published 2008).

Key:
[1] = controlled release formulation for pulmonary delivery
[2] = aerosol formulation, single administration of a metered dose, asthma

**Q.** Which “period over which the antimuscarinic agent exerts its pharmacological effect” value [1] does the source give for C[N+]1(C)CCC(OC(=O)C(O)(c2ccccc2)C2CCCC2)C1.[Br-] (racemic) [glycopyrrolate, 3-[(Cyclopentyl-hydroxyphenylacetyl)oxy]-1,1-dimethylpyrrolidinium bromide] here?
**A.** greater than 12 hours

**Q.** And the duration of bronchodilation [2]?
**A.** up to 12 hours
